Measured values: ChEMBL document CHEMBL3861944 (Medchemcomm, 2016)

What was measured:
[1] = Cell cycle arrest in human AsPC1 cells assessed as accumulation at G0/G1 phase at 1 uM after 24 hrs by flow cytometric method (reference value: 48 +/- 7%); format: functional, cell-based
[2] = Cell cycle arrest in human AsPC1 cells assessed as accumulation at S phase at 1 uM after 24 hrs by flow cytometric method (reference value: 23 +/- 3%); format: functional, cell-based
[3] = Cell cycle arrest in human THP1 cells assessed as accumulation at G2/M phase at 0.5 uM after 24 hrs by flow cytometric method (reference value: 32 +/- 1%); format: functional, cell-based; conditions: THP-1
ASPC1 [4] = assay: Pro-apoptotic activity in human AsPC1 cells assessed as early apoptotic cells at 30 uM after 24 hrs by annexin V/propidium iodide staining-based flow cytometric method (reference value: 0.8 +/- 0.1%); format: functional
THP-1 [5] = assay: Pro-apoptotic activity in human THP1 cells assessed as necrotic cells at 1 uM after 24 hrs by annexin V/propidium iodide staining-based flow cytometric method relative to control; format: functional
[6] = Cell cycle arrest in human THP1 cells assessed as accumulation at G0/G1 phase at 30 uM after 24 hrs by flow cytometric method (reference value: 51 +/- 6%); format: functional, cell-based; conditions: THP-1
[7] = Cell cycle arrest in human AsPC1 cells assessed as accumulation at G0/G1 phase at 10 uM after 24 hrs by flow cytometric method (reference value: 48 +/- 7%); format: functional, cell-based
THP-1 [8] = assay: Pro-apoptotic activity in human THP1 cells assessed as early apoptotic cells at 1 uM after 24 hrs by annexin V/propidium iodide staining-based flow cytometric method (reference value: 0.4 +/- 0.1%); format: functional
ASPC1 [9] = assay: Pro-apoptotic activity in human AsPC1 cells assessed as late apoptotic cells at 30 uM after 24 hrs by annexin V/propidium iodide staining-based flow cytometric method (reference value: 0.8 +/- 0.1%); format: functional
ASPC1 [10] = assay: Pro-apoptotic activity in human AsPC1 cells assessed as late apoptotic cells at 1 uM after 24 hrs by annexin V/propidium iodide staining-based flow cytometric method (reference value: 0.8 +/- 0.1%); format: functional
THP-1 [11] = assay: Pro-apoptotic activity in human THP1 cells assessed as necrotic cells at 0.75 uM after 24 hrs by annexin V/propidium iodide staining-based flow cytometric method relative to control; format: functional
THP-1 [12] = assay: Pro-apoptotic activity in human THP1 cells assessed as late apoptotic cells at 1 uM after 24 hrs by annexin V/propidium iodide staining-based flow cytometric method (reference value: 0.4 +/- 0.1%); format: functional
[13] = Cell cycle arrest in human THP1 cells assessed as decrease in cell levels at G2/M phase after 24 hrs by flow cytometric method; format: functional, cell-based; conditions: THP-1
THP-1 [14] = assay: Pro-apoptotic activity in human THP1 cells assessed as necrotic cells at 0.5 uM after 24 hrs by annexin V/propidium iodide staining-based flow cytometric method relative to control; format: functional
[15] = Cell cycle arrest in human THP1 cells assessed as accumulation at S phase at 1 uM after 24 hrs by flow cytometric method (reference value: 16 +/- 2%); format: functional, cell-based; conditions: THP-1
ASPC1 [16] = assay: Pro-apoptotic activity in human AsPC1 cells assessed as early apoptotic cells at 50 uM after 24 hrs by annexin V/propidium iodide staining-based flow cytometric method (reference value: 0.8 +/- 0.1%); format: functional
THP-1 [17] = assay: Pro-apoptotic activity in human THP1 cells assessed as necrotic cells at 30 uM after 24 hrs by annexin V/propidium iodide staining-based flow cytometric method relative to control; format: functional
THP-1 [18] = assay: Pro-apoptotic activity in human THP1 cells assessed as necrotic cells at 10 uM after 24 hrs by annexin V/propidium iodide staining-based flow cytometric method relative to control; format: functional
[19] = Cell cycle arrest in human AsPC1 cells assessed as accumulation at G2/M phase at 30 uM after 24 hrs by flow cytometric method (reference value: 29 +/- 5%); format: functional, cell-based
ASPC1 [20] = assay: Pro-apoptotic activity in human AsPC1 cells assessed as late apoptotic cells at 50 uM after 24 hrs by annexin V/propidium iodide staining-based flow cytometric method (reference value: 0.8 +/- 0.1%); format: functional
THP-1 [21] = assay: Pro-apoptotic activity in human THP1 cells assessed as necrotic cells at 3 uM after 24 hrs by annexin V/propidium iodide staining-based flow cytometric method relative to control; format: functional
[22] = Cell cycle arrest in human THP1 cells assessed as accumulation at G2/M phase at 0.75 uM after 24 hrs by flow cytometric method (reference value: 32 +/- 1%); format: functional, cell-based; conditions: THP-1
ASPC1 [23] = assay: Pro-apoptotic activity in human AsPC1 cells assessed as necrotic cells at 100 uM after 24 hrs by annexin V/propidium iodide staining-based flow cytometric method (reference value: 2.1 +/- 0.4%); format: functional
[24] = Cell cycle arrest in human THP1 cells assessed as accumulation at S phase at 0.5 uM after 24 hrs by flow cytometric method (reference value: 16 +/- 2%); format: functional, cell-based; conditions: THP-1
[25] = Cell cycle arrest in human THP1 cells assessed as accumulation at G2/M phase at 10 uM after 24 hrs by flow cytometric method (reference value: 32 +/- 1%); format: functional, cell-based; conditions: THP-1
ASPC1 [26] = assay: Pro-apoptotic activity in human AsPC1 cells assessed as late apoptotic cells at 75 uM after 24 hrs by annexin V/propidium iodide staining-based flow cytometric method (reference value: 0.8 +/- 0.1%); format: functional
THP-1 [27] = assay: Pro-apoptotic activity in human THP1 cells assessed as early apoptotic cells at 0.5 uM after 24 hrs by annexin V/propidium iodide staining-based flow cytometric method (reference value: 0.4 +/- 0.1%); format: functional
ASPC1 [28] = assay: Pro-apoptotic activity in human AsPC1 cells assessed as late apoptotic cells at 10 uM after 24 hrs by annexin V/propidium iodide staining-based flow cytometric method (reference value: 0.8 +/- 0.1%); format: functional
[29] = Cell cycle arrest in human THP1 cells assessed as accumulation at G2/M phase at 30 uM after 24 hrs by flow cytometric method (reference value: 32 +/- 1%); format: functional, cell-based; conditions: THP-1
[30] = Cell cycle arrest in human AsPC1 cells assessed as accumulation at G2/M phase at 100 uM after 24 hrs by flow cytometric method (reference value: 29 +/- 5%); format: functional, cell-based
[31] = Cell cycle arrest in human THP1 cells assessed as accumulation at S phase at 3 uM after 24 hrs by flow cytometric method (reference value: 16 +/- 2%); format: functional, cell-based; conditions: THP-1
ASPC1 [32] = assay: Pro-apoptotic activity in human AsPC1 cells after 24 hrs by annexin V/propidium iodide staining-based flow cytometric method; format: functional; conditions: ASPC1, 24 h, read-out: ED50 (the source's name)
[33] = Cell cycle arrest in human THP1 cells assessed as accumulation at G0/G1 phase at 1 uM after 24 hrs by flow cytometric method (reference value: 51 +/- 6%); format: functional, cell-based; conditions: THP-1
[34] = Cell cycle arrest in human AsPC1 cells assessed as accumulation at G2/M phase at 10 uM after 24 hrs by flow cytometric method (reference value: 29 +/- 5%); format: functional, cell-based
[35] = Cell cycle arrest in human AsPC1 cells assessed as accumulation at G0/G1 phase at 50 uM after 24 hrs by flow cytometric method (reference value: 48 +/- 7%); format: functional, cell-based
[36] = Cell cycle arrest in human THP1 cells assessed as accumulation at G0/G1 phase at 0.5 uM after 24 hrs by flow cytometric method (reference value: 51 +/- 6%); format: functional, cell-based; conditions: THP-1

SMILES: NC(=[Se])N/N=C/c1cccc2cccnc12
- Activity [1]: 53.8%
- Activity [2]: 35.5%
- Activity [3]: 27%
- Activity (ASPC1 [4]): 0%
- Activity (THP-1 [5]): 0.4%
- Activity [6]: 43%
- Activity [7]: 62%
- Activity (THP-1 [8]): 1.5%
- Activity (ASPC1 [9]): 1.1%
- Activity (ASPC1 [10]): 0.4%
- Activity (THP-1 [11]): 0.7%
- Activity (THP-1 [12]): 2%
- Activity [13]: Dose-dependent effect
- Activity (THP-1 [14]): 0.7%
- Activity [15]: 26%
- Activity (ASPC1 [16]): 0.4%
- Activity (THP-1 [17]): 4%
- Activity (THP-1 [18]): 4%
- Activity [19]: 8.2%
- Activity (ASPC1 [20]): 0.3%
- Activity (THP-1 [21]): 0.4%
- Activity [22]: 34%
- Activity (ASPC1 [23]): 5.5%
- Activity [24]: 22%
- Activity [25]: 28%
- Activity (ASPC1 [26]): 4.1%
- Activity (THP-1 [27]): 1.7%
- Activity (ASPC1 [28]): 0.8%
- Activity [29]: 26%
- Activity [30]: 17%
- Activity [31]: 27%
- EC50 (ASPC1 [32]): > 100 µM
- Activity [33]: 43%
- Activity [34]: 16.7%
- Activity [35]: 65.4%
- Activity [36]: 50%
